Source: US4650907A, “Nonaromatic fluoroallylamine MAO inhibitors” (Merrell Dow Pharmaceuticals Inc., priority 1985, dated 1987)

Experiments:
MAO = details: selective at lower dosages, less selective at higher dosages; cited from earlier work
MAO-B [1] = molecular target: T1, MAO-B (Rattus norvegicus, UniProt P19643); test: Inhibition of MAO - in vitro, partially purified mitochondria from rat brain, 14C-phenethylamine (PEA) substrate (MAO-B); type: biochemical; details: substrate 14C-phenethylamine (PEA), preferred substrate for MAO-B
T1 construct: preparing mitochondria from rat brain by homogenation in phosphate buffer; from tissue; host or cells: rat brain mitochondria
T1 sequence (P19643 1-520): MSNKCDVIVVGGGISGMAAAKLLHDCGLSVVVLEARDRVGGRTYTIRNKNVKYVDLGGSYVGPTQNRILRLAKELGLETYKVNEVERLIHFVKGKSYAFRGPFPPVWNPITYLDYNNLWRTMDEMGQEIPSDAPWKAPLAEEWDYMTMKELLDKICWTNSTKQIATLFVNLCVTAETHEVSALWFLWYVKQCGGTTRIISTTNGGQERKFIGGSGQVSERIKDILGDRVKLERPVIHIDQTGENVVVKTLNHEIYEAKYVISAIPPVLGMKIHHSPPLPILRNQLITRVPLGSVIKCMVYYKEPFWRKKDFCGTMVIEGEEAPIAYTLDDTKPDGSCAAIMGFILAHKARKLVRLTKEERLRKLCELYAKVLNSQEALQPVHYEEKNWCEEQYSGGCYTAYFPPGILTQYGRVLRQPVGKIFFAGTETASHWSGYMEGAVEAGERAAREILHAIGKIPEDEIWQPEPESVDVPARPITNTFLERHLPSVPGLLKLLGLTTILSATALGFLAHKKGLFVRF
From the text: (§1) The ability of a compound of structure 1 to inhibit MAO can be determined in vitro by the method of A. Christmas et al., Br. J. Pharmacol. 45, 490 (1972) in partially purified mitochondria from rat brain using ^14 C otyramine or ^14 C phenethylamine and ^14 C 5-HT as the substrate. The MAO inhibitory activity of a compound is expressed as the "IC50 " value, which is the molar concentration required to produce 50% inhibition of the enzyme. The IC50 values for certain compounds of structure 1 were determined using the above-described method, and the results are set forth in Table I.
(§2) The selectivity of a compound of structure 1 with respect to inhibition of MAO-A and MAO-B can be determined by preparing mitochondria from rat brain by homogenation in phosphate buffer (0.1 M, pH 7.2) followed by differential centrifugation. The mitochondria are suspended in the same buffer, the test compound is added at the desired concentration, and the system is incubated. At different time intervals, aliquots are taken and MAO activity is measured using ^14 C 5-hydroxytryptamine (5HT; a preferred substrate for MAO-A) or 14C -phenethylamine (PEA; a preferred substrate for MAO-B) as the substrates. The selectivity is expressed as the ratio of the inhibitory activity against MAO-B versus the inhibitory activity against MAO-A. (Zreika, McDonald, Bey, Palfreyman, J. Neurochem., 448-454 (1984)).

MAO-A [2] = molecular target: T2, MAO-A (Rattus norvegicus, UniProt P21396); test: Inhibition of MAO - in vitro, partially purified mitochondria from rat brain, 14C 5-hydroxytryptamine (5-HT) substrate (MAO-A); type: biochemical; details: substrate 14C 5-hydroxytryptamine (5HT), preferred substrate for MAO-A
T2 construct: preparing mitochondria from rat brain by homogenation in phosphate buffer; from tissue; host or cells: rat brain mitochondria
T2 sequence (P21396 1-526): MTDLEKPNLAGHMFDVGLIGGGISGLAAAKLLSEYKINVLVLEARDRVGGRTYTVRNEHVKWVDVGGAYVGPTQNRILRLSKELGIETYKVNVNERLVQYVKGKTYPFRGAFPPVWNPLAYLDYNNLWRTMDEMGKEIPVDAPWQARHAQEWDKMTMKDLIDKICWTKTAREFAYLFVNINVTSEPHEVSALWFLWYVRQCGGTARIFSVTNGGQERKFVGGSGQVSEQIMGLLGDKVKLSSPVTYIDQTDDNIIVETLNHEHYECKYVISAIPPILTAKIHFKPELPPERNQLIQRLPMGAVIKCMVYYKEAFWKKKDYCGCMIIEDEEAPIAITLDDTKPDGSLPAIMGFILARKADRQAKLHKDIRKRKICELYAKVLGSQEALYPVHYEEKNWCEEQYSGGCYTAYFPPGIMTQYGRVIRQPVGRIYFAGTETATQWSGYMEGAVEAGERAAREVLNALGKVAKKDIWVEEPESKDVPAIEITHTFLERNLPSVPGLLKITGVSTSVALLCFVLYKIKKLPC
From the text: as §1, §2

MAO-B [3] = molecular target: T1, MAO-B; test: Inhibition of MAO - ex vivo, brain mitochondria of orally dosed rats, 14C phenethylamine substrate (MAO-B); type: in vivo; details: po, brain mitochondrial fraction
Procedure: (§3) The test compound is administered orally (po) to rats and the animals are killed at various times after treatment. The brain is removed and a mitochondrial fraction, described in Example 12 is prepared. MAO activity is determined using ^14 C p-tyramine, as the substrate. Selectivity can be determined by repeating the above-described test using either ^14 C 5-hydroxytryptamine (for MAO-A) or ^14 C phenethylamine (for MAO-B) as the substrate for determining the % inhibition.

MAO-A [4] = molecular target: T2, MAO-A; test: Inhibition of MAO - ex vivo, brain mitochondria of orally dosed rats, 14C 5-hydroxytryptamine substrate (MAO-A); type: in vivo; details: po, brain mitochondrial fraction
Procedure: as §3

[5] = cited from earlier work; for clinical antidepressant effect: man

Row | Compound | preferential inhibition of MAO (in words) (MAO) | IC50 (MAO-B [1]) | IC50 (MAO-A [2]) | also measured
1 | N[C@@H]1C[C@H]1c1ccccc1 (relative stereo) [tranylcypromine] | not preferential in their action upon MAO | – | – | –
2 | CCCC/C(=C\F)CN [(E)-2-Butyl-3-fluoroallylamine] | – | 2 nM | 110 nM | –
3 | CCCCCCC/C(=C\F)CN [(E)-2-Heptyl-3-fluoroallylamine] | – | 4.5 nM | 60 nM | –
4 | CCCCCC/C(=C\F)CN [(E)-2-Hexyl-3-fluoroallylamine] | – | 7 nM | 170 nM | –
5 | CC(C)C/C(=C\F)CN [(E)-2-Isobutyl-3-fluoroallylamine] | – | 30 nM | 2300 nM | ED50 (MAO-B [3]): 0.05 mg/kg; ED50 (MAO-A [4]): 0.8 mg/kg
6 | CC(C)/C(=C\F)CN [(E)-2-Isopropyl-3-fluoroallylamine] | – | 2500 nM | 170000 nM | –
7 | CCCCCCCCCCC/C(=C\F)CN [(E)-2-Undecyl-3-fluoroallylamine] | – | 500 nM | 750 nM | –
8 | CCC(C)/C(=C\F)CN (centres unmarked) [(E)-2-sec-Butyl-3-fluoroallylamine] | – | 7000 nM | 170000 nM | –
9 | C#CCN(C)[C@H](C)Cc1ccccc1 [L-deprenyl] | MAO-B is preferentially inhibited | – | – | cheese effect ([5]; low dosages where preferential inhibition of MAO-B occurs): not observed; clinical antidepressant effect [5]: clinically effective antidepressant agents; potentiation of L-DOPA in Parkinson's disease ([5]; treatment of Parkinson's disease): potentiate L-DOPA for the treatment of Parkinson's disease without producing peripheral side effects
10 | C#CCN(C)CCCOc1ccc(Cl)cc1Cl [clorgyline] | – | – | – | clinical antidepressant effect [5]: clinically effective antidepressant agents
11 | Cc1cc(C(=O)NNCc2ccccc2)no1 [isocarboxazid] | not preferential in their action upon MAO | – | – | –
12 | C#CCN(C)Cc1ccccc1 [pargyline] | MAO-B is preferentially inhibited | – | – | clinical antidepressant effect [5]: clinically effective antidepressant agents
13 | NNCCc1ccccc1 [phenelzine] | not preferential in their action upon MAO | – | – | –
